Experiments:
[1] = test system: RAO horses; assay: Phase II: cross-over, blinded mouldy hay challenge study, 7 days treatment; type: in vivo, horse; conditions: for EL values over time / ΔPL values over time: Days 4 and 8 compared to Day 1; for RL values over time: clenbuterol group and 800 μg LAMA 1 group
Protocol: LAMA 1 is investigated in a cross-over, blinded mouldy hay challenge study. 8 RAO horses are examined in the study, which is divided into an acclimation and a treatment phase. Placebo for LAMA 1 is administered once daily per inhalation via the Equine Inhaler device to all horses for 1 week in the acclimation period. LAMA 1 and clenbuterol are administered to the horses in a cross-over design in the treatment phase. The horses are challenged by exposure to mouldy hay throughout the acclimation and treatment phases. LAMA 1 is administered with the doses of 200 μg (2 actuations)/400 μg (4 actuations)/800 μg (8 actuations)/horse (ex-RESPIMAT®) once daily for 7 days per inhalation via the Equine Inhaler device. Nozzle A and a commercially available RESPIMAT® is used in the study. Clenbuterol is administered with a dose of 0.8 μg/kg per os, twice daily for 7 days. Lung function variables (change in transpulmonary pressure (ΔPL), lung resistance (RL) and lung elastance (EL)), breathing effort score, Borborygmi score, blood gas analysis are examined during the study.

[2] = test system: RAO horses; assay: Phase I and IV: mouldy hay challenge, single inhaled administration, lung function for 24 h; type: in vivo, horse
Protocol: LAMA 1 is investigated in two RAO horses at different phases or periods as part of a mouldy hay challenge study. The horses are challenged every day by exposure to mouldy hay. LAMA 1 is administered via the Equine Inhaler device at different doses or formulations. Lung function parameters (change in transpulmonary pressure (ΔPL), lung resistance (RL) and lung elastance (EL)) are measured for 24 h. A single administration of 800 μg LAMA 1 (8 actuations in aqueous formulation) is performed per inhalation to two RAO horses (ID numbers: 312 and 91) in phase I. Two RAO horses are treated with LAMA 1 in phase IV (ID numbers: 40 and 91), which can be divided into three periods. 2000 μg LAMA 1 (20 actuations in aqueous formulation) is administered per inhalation in period 1. 2000 μg LAMA 1 ([…] in ethanolic formulation) is administered per inhalation in period 2. 2000 μg LAMA 1 (20 actuations in ethanolic formulation) is administered per inhalation in period 3.

[3] = Kallos-Pagel Model, effects vs. tiotropium; type: in vivo
[4] = test system: healthy horses; assay: Phase III: ECG measurements for 48 h after single inhalation; type: in vivo, horse; conditions: single 800 μg inhalation, aqueous formulation, two healthy horses
Protocol: A single administration of 800 μg LAMA 1 (8 actuations in aqueous formulation) is performed per inhalation to two healthy horses in phase III. Subsequently, ECG measurements are done for 48 h.

[5] = molecular target: Hm3 (Homo sapiens, UniProt P20309); assay: Binding to Hm3 receptor (mean KD, dissociation half-life)
[6] = 800 μg group, Day 7 compared to Day 0
[7] = day 4, all LAMA 1 groups (200, 400, 800 μg)

Hm3, sequence (P20309 whole entry): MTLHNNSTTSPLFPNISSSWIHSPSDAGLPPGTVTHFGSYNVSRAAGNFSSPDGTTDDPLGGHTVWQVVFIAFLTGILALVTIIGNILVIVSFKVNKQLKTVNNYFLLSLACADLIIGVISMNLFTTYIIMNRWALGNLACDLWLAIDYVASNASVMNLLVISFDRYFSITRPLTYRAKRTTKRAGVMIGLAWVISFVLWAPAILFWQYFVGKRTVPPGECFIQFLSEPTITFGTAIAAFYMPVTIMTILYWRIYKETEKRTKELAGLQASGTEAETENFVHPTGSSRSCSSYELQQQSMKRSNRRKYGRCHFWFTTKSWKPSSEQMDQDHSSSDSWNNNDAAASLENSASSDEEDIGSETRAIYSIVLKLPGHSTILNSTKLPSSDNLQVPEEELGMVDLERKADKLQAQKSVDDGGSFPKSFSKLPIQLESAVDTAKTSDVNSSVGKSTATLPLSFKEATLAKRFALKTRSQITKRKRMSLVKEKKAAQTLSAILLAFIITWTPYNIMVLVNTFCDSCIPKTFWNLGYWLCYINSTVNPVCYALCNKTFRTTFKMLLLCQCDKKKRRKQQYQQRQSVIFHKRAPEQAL

Row | Structure (SMILES) | EL values over time [1] | ΔPL values over time [1] | RL values over time [1] | Breathing effort score ([1]; study day 6, clenbuterol 0.8 μg/kg per os twice daily compared with 2 or 4 actuations of LAMA 1) | pH in arterial blood [1, 6] | paCO2 in arterial blood [1, 6] | Improvement in lung function after one week, compared with clenbuterol ([1]; LAMA 1 once daily for one week, clenbuterol twice daily for one week) | Change in EL 30 min after administration ([1]; day 4, 200 and 400 μg LAMA 1) | Change in ΔPL 30 min after administration ([1]; day 4, 200 and 400 μg LAMA 1) | EL 30 min after administration vs pre-treatment [1, 7] | RL 30 min after administration vs pre-treatment [1, 7] | ΔPL 30 min after administration vs pre-treatment [1, 7] | Lung function variables at 24 h after single administration ([2]; 24 h, compared with pre-treatment values) | Time until which lung function values continue to drop ([2]; depending on lung function parameter, dose or formulation) [h] | Start of decrease in lung function variables (ΔPL, RL, EL) after administration ([2]; single inhalation of 800 μg or 2000 μg, aqueous or ethanolic formulation) [min] | Effects in the Kallos-Pagel Model: protection ([3]; acute and chronic) [h] | Effects in the Kallos-Pagel Model vs. tiotropium: lower efficacy (chronic) ([3]; chronic, vs. tiotropium) [fold] | ECG: abnormal observation [4] | ECG: arrhythmias [4] | Kd [5] [nM]
1 | CC(C)(C)NCC(O)c1cc(Cl)c(N)c(Cl)c1 (centres unmarked) [clenbuterol, reference compound] | None of the treatments (LAMA 1 or clenbuterol) alters significantly | None of the treatments (LAMA 1 or clenbuterol) alters significantly | significantly reduced | significantly smaller breathing effort scores |  |  |  |  |  |  |  |  |  |  |  |  |  |  |  | 
2 | CC(C(=O)O[C@H]1CC2C3O[C@@H]3[C@H](C1)[N+]2(C)C)(c1ccccc1)c1ccccc1 (stereo partly drawn) [LAMA 1, (1α,2β,4β,5α,7β)-3-Oxa-9-azoniatricyclo [3.3.1.0^2.4] nonane, 9,9-dimethyl-7-(1-oxo-2,2-diphenylpropoxy)-bromide] | None of the treatments (LAMA 1 or clenbuterol) alters significantly | None of the treatments (LAMA 1 or clenbuterol) alters significantly | significantly reduced |  | increases | reduces significantly | comparable to the significant improvement in lung function after the twice daily administration of clenbuterol | statistically significant | statistically significant | decrease | decrease | decrease | below or reach the pre-treatment values | 2 to 8 | 5 | 24 | 10 | Only one observation is classified as either a first-degree heart block with aberrant intraventricular repolarization, or an artifact | Physiological arrhythmias are noted in both horses before and following the administration | 0.4

— patent US10682345B2, “Muscarinic antagonists and combinations thereof for the treatment of airway disease in horses” (Boehringer Ingelheim Vetmedica GmbH, priority 2014, dated 2020)
